# The source made the active and inactive calls. The rule behind the calls is not given here.
# Assays:
# Mus musculus [1] = experiment: Compound was tested for the effective dose required for the inhibition of Trypanosoma rhodesiense in mice at 424 mg/kg dose in mice; (2 mice survived of 5 treated); assay type: functional
# Mus musculus [2] = experiment: Compound was tested for the effective dose required for the inhibition of Trypanosoma rhodesiense in mice at 106 mg/kg dose in mice; (1 mice survived of 5 treated); assay type: functional
# Mus musculus [3] = experiment: Compound was tested for the effective dose required for the inhibition of Trypanosoma rhodesiense in mice at 212 mg/kg dose in mice; (1 mice survived of 5 treated); assay type: functional
# [4] = target: T1, Hypoxanthine-guanine phosphoribosyltransferase (Homo sapiens) (UniProt P00492); experiment: Compound was tested for the inhibition of Hypoxanthine-Guanine Phosphoribosyltransferase (from H.Ep.2 cells); no activity
# T1 sequence (whole entry): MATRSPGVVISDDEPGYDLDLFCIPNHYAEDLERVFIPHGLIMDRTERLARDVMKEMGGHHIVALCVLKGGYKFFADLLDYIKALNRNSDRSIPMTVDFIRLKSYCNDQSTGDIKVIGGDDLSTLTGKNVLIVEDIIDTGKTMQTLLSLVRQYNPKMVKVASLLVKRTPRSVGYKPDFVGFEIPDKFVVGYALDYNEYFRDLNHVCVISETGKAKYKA
# Mus musculus [5] = species: Mus musculus; experiment: Compound was tested for ability to extend the life span of Plasmodium berghei infected mice (Mus musculus); no activity; assay type: functional, organism-based
SMILES,Survivals (Mus musculus [1]),Activity (Mus musculus [2]),Survivals (Mus musculus [3]),Activity [4],Activity (Mus musculus [5])
O=C(CBr)NCCn1cnc2ncnc-2c1O,2,1,1,,
OCCOc1[nH]cnc2ncnc1-2,,,,inactive,inactive
O=C(Nc1ccc(Cn2cnc3ncnc-3c2O)cc1)c1ccc(S(=O)(=O)F)cc1,,,,inactive,inactive
[N-]=[N+]=NCCn1cnc2ncnc-2c1O,,,,inactive,inactive
Oc1c2ncnc-2ncn1CCCl,,,,inactive,inactive
O=C(Nc1ccc(Cn2cnc3ncnc-3c2O)cc1)c1cccc(S(=O)(=O)F)c1,,,,inactive,inactive
O=[N+]([O-])c1ccc(Cn2cnc3ncnc-3c2O)cc1,,,,inactive,inactive
O=C(Nc1ccc(Cn2cnc3ncnc-3c2O)cc1)c1ccc(Cl)cc1,,,,inactive,inactive
NCCn1cnc2ncnc-2c1O,,,,inactive,inactive
O=C(CBr)Nc1ccc(Cn2cnc3ncnc-3c2O)cc1,,,,inactive,inactive
Nc1ccc(Cn2cnc3ncnc-3c2O)cc1,,,,inactive,inactive
